Reference: paper PMC10458253, “Unraveling the In Vitro Toxicity Profile of Psychedelic 2C Phenethylamines and Their N-Benzylphenethylamine (NBOMe) Analogues” (Pharmaceuticals, 2023)

Tests used:
[1] = system: differentiated SH-SY5Y cells; experiment: Resazurin reduction cytotoxicity assay, differentiated SH-SY5Y; type: cell-based; conditions: 24 h; for Top (maximal effect): maximum cell death of fitted curve; for EC50: Homo sapiens, cell death curves 0–1500 µM, read-out: EC50 (half-maximum-effect concentration)
Procedure: SH-SY5Y cells were acquired from the American Type Culture Collection (Manassas, VA, USA). Cells were cultured in 25 cm^2 flasks using DMEM—high glucose supplemented with 10% heat-inactivated FBS, 1% MEM non-essential amino acids and 1% penicillin/streptomycin mixture, and maintained in a 5% CO2–95% air atmosphere, at 37 °C, until 80% confluence. Cells were routinely subcultured using trypsin-EDTA and, to avoid phenotypic alterations, were always used between passages 23 and 29. In all experiments, the cells were seeded at a density of 25,000 cells/cm^2. As previously described, to achieve a dopaminergic neuronal phenotype, the cells were seeded in a complete DMEM medium containing 10 μM retinoic acid and, after 3 days, 80 nM TPA was added to the cultures for another 3 days.
(§1) Neutral red uptake and resazurin reduction assays were performed after exposure of differentiated SH-SY5Y and HepG2 cells to the drugs under study. To obtain a concentration–response curve, a broad concentration range (0–2000 µM) was investigated, and cytotoxicity was evaluated 24 h after exposure in 96-well cell culture plates. As previously described, neutral red uptake assay is based on the incorporation of neutral red dye into the lysosomes of viable cells and the amount of dye incorporated represents the cells’ lysosomal functionality, and resazurin reduction assay is based on the irreversible reduction of resazurin dye to the fluorescent resorufin product by metabolically active cells.
(§2) Briefly, 24 h after being exposed to different concentrations of the compounds, differentiated SH-SY5Y cells were incubated with either neutral red (50 µg/mL) or resazurin (10 µg/mL) solutions for 90 min, at 37 °C, in a 5% CO2–95% air atmosphere. For HepG2 cells, 24 h after the exposure to the tested drugs, the cells were incubated with either neutral red (50 µg/mL) or resazurin (10 µg/mL) solutions for 45 and 60 min, respectively, at 37 °C, in a 5% CO2–95% air atmosphere.
(§3) In the neutral red uptake assay, at the end of the incubation period, the cell culture medium was removed and a solution of absolute ethyl alcohol/distilled water (1:1) with 5% acetic acid was added to extract the dye absorbed only by the viable cells. The absorbance was measured at 540 nm in a multi-well plate reader (PowerWaveX BioTek Instruments, Winooski, VT, USA). In the resazurin assay, at the end of the incubation period, the fluorescence was measured at 530 nm excitation and 590 nm emission wavelengths in a multi-well plate reader (PowerWaveX BioTek Instruments, Winooski, VT, USA).
(§4) The results were expressed as a percentage of control cells. At least four independent experiments were performed, in triplicate. For differentiated SH-SY5Y cells, the neutral red uptake assay was identified as the most sensitive assay and, therefore, used for the subsequent experiments. On the other hand, for HepG2 cells, the resazurin reduction assay was identified as the most sensitive assay and, therefore, used for the subsequent experiments.

HepG2 cells [2] = experiment: Neutral red uptake cytotoxicity assay, HepG2; type: cell-based; conditions: HepG2, 24 h; for Top (maximal effect): maximum cell death of fitted curve; for EC50: Homo sapiens, cell death curves 0–2000 µM, read-out: EC50 (half-maximum-effect concentrations)
Procedure: HepG2 cells were acquired from the American Type Culture Collection (Manassas, VA, USA). Cells were cultured in 75 cm^2 flasks using DMEM—high glucose supplemented with a 10% heat inactivated FBS and 1% penicillin/streptomycin mixture, and maintained in a 5% CO2–95% air atmosphere, at 37 °C, until 80% confluence. Cells were routinely subcultured using trypsin-EDTA and, to avoid phenotypic alterations, used between passages 16 and 22. In all experiments, the cells were seeded at a density of 250,000 cells/cm^2 and used 24 h after seeding.
as §1, §2, §3, §4

HepG2 cells [3] = experiment: Effect of CYP inhibitors on drug cytotoxicity (resazurin reduction), HepG2; type: cell-based; conditions: HepG2, 24 h, drug concentrations as given in the source; for change of resazurin reduction with ketoconazole vs drug alone: 1 μM ketoconazole; for change of resazurin reduction with ABT vs drug alone: 1000 μM ABT; for change of resazurin reduction with quinidine vs drug alone: 10 μM quinidine
Procedure: Analogously to the studies performed in the neuronal model, the impact of the CYP-mediated metabolism on the cytotoxicity of the tested drugs was also evaluated, in HepG2 cells, 24 h after exposure to the drugs in the presence or absence of different CYP inhibitors: 1000 μM ABT, 10 μM quinidine or 1 μM ketoconazole.
CYP inhibition assay was used to evaluate the drugs’ potential to inhibit drug-metabolizing enzymes. Accordingly, SH-SY5Y and HepG2 cells were seeded in 96-well cell culture plates and pre-incubated with 1000 µM ABT—a non-isoform specific CYP450 inhibitor, 10 µM quinidine—a CYP2D6 inhibitor or 1 µM ketoconazole—a CYP3A4 inhibitor. After 1 h, the drugs (0–500 µM) were co-incubated with the inhibitors for 24 h, at 37 °C, in a 5% CO2–95% air atmosphere. The drugs’ cytotoxicity was then assessed through the neutral red uptake assay for differentiated SH-SY5Y cells, and through the resazurin reduction assay for HepG2 cells, and the results were expressed as percentage of control cells. At least four independent experiments were performed, in triplicate.

[4] = system: differentiated SH-SY5Y cells; experiment: Effect of MAO inhibitors on drug cytotoxicity (neutral red uptake), differentiated SH-SY5Y; type: cell-based; conditions: 24 h; for change of drug cytotoxicity with rasagiline (neutral red uptake): 1 µM rasagiline (MAO-B inhibitor), drug concentrations as given in the source
Procedure: MAO inhibition was used to elucidate the impact of MAO-A and MAO-B in the cytotoxicity of the tested drugs. […] The drugs’ cytotoxicity was then assessed through the neutral red uptake assay and the results were expressed as percentage of control cells. At least four independent experiments were performed, in triplicate.

hMAO-B = target: T1, hMAO-B (Homo sapiens, UniProt P27338); experiment: biochemical; conditions: read-out: % inhibition at 10 µM hMAO-B, kynuramine substrate
T1 construct: purchased Sigma Aldrich; host or cells: insect cells (BTI-TN-5B1-4), recombinant baculovirus
T1 sequence (P27338 1-520): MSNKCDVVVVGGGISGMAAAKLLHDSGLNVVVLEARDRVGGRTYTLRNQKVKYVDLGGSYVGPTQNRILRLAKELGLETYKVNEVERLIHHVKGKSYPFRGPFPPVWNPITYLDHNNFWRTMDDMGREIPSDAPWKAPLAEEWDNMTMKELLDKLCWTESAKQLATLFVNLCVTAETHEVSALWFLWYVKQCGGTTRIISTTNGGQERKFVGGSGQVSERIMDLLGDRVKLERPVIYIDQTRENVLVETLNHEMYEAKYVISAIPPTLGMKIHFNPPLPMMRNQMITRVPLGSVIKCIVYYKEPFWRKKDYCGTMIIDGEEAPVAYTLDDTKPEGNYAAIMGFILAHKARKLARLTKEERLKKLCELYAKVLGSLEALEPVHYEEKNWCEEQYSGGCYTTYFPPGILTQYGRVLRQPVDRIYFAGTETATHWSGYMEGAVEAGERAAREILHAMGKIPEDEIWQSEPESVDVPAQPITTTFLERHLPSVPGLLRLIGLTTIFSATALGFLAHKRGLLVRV
Procedure: The hMAO inhibitory activities were assessed in microsomal MAO isoforms, prepared from insect cells (BTI-TN-5B1-4) infected with recombinant baculovirus containing cDNA inserts for hMAO-A or hMAO-B, by measuring the enzymatic conversion rates of kynuramine into 4-hydroxyquinoline. […] All assays were performed in sodium phosphate buffer solution 50 mM pH 7.4.
The percentages of MAO inhibition of each compound were determined from three independent experiments performed in triplicate.

[5] = 1 µM clorgyline (MAO-A inhibitor), drug 50-250 µM

SMILES	Bottom (baseline) [1]	Hill Slope [1]	Top (maximal effect) [1]	EC50 [1]	Bottom (baseline) (HepG2 cells [2])	Hill Slope (HepG2 cells [2])	Top (maximal effect) (HepG2 cells [2])	EC50 (HepG2 cells [2])	change of resazurin reduction with ketoconazole vs drug alone (HepG2 cells [3])	change of resazurin reduction with ABT vs drug alone (HepG2 cells [3])	change of drug cytotoxicity with rasagiline (neutral red uptake) [4]	inhibition at 10 µM (hMAO-B)	change of resazurin reduction with quinidine vs drug alone (HepG2 cells [3])	change of drug cytotoxicity with clorgyline (neutral red uptake) [4, 5]	cytotoxic effect (in words) ([1]; 0–1500 µM)	cytotoxicity (in words) (HepG2 cells [2]; 0–2000 µM)	change of drug cytotoxicity with clorgyline (neutral red uptake) ([4]; 1 µM clorgyline, 500 µM drug concentration)
COc1cc(CCN)c(OC)cc1Br [2C-B, 4-Bromo-2,5-dimethoxy-β-phenethylamine]	7.210	1.670	83.95	225 µM	5.433	5.413	95.01	257 µM	significant decrease in the cells’ metabolic capacity	small but significant decrease in resazurin reduction	significantly increased the cytotoxicity	27.2%	–	–	–	–	–
COc1cc([N+](=O)[O-])c(OC)cc1CCN [2C-N, 2,5-dimethoxy-4-nitrophenethylamine]	4.440	1.627	≈100	832 µM	7.328	4.340	≈100	960 µM	significant increase in the metabolic capacity of cells	–	significantly increased the cytotoxicity	18%	significant increase in the metabolic capacity of cells	–	–	–	–
COc1cc(CCNCc2ccccc2OC)c(OC)cc1Br [25B-NBOMe, 4-Bromo-2,5-dimethoxy-N-(2-methoxybenzyl)-β-phenethylamine]	6.827	4.464	80.62	58.4 µM	4.279	2.442	≈100	34.7 µM	significant decrease in the cells’ metabolic capacity	small but significant decrease in resazurin reduction	significant increase in cell viability	33.9%	–	–	–	–	–
COc1cc([N+](=O)[O-])c(OC)cc1CCNCc1ccccc1OC [25N-NBOMe, 4-Nitro-2-dimethoxy-N-(2-methoxybenzyl)-β-phenethylamine]	0.9223	4.692	80.10	154 µM	7.254	6.518	94.13	115 µM	no significant changes in resazurin reduction	small but significant decrease in resazurin reduction	significant increase in cell viability	25.5%	no significant changes in resazurin reduction	significantly increased the cytotoxicity	–	–	–
COc1cc(CCN)cc(OC)c1OC.Cl [Mescaline, 3,4,5-Trimethoxyphenethylamine hydrochloride]	–	–	–	–	–	–	–	–	No significant changes	No significant changes	–	21.2%	No significant changes	significantly increased the cytotoxicity	no significant cytotoxic effects	not causing a significant cytotoxicity	–
COc1ccccc1CNCCc1cc(OC)c(OC)c(OC)c1 [Mescaline-NBOMe, 3,4,5-Trimethoxy-N-(2-methoxybenzyl)-β-phenethylamine]	2.774	2.524	94.72	677 µM	2.853	3.666	98.25	476 µM	no significant changes in resazurin reduction	small but significant decrease in resazurin reduction	significantly increased the cytotoxicity	89%	no significant changes in resazurin reduction	significantly increased the cytotoxicity	–	–	significant increase in cell viability
